{
  "source": "patent US20130239239A1",
  "about": "“LMCD1 CANCER MARKERS AND METHODS FOR THEIR USE” (Academia Sinica, priority 2012, published 2013)",
  "key": {"[1]": {"tested_on": "LMCD1 transfectants in SK-Hep1 cells", "test": "Lamellipodia formation (Arp3 staining, cell morphology) in LMCD1 transfectants", "format": "cell-based, human", "details": "LMCD1-E135K and LMCD1-K237R cells", "from_the_text": "Coverslips were mounted on slides using […] mounting medium with DAPI (Vector Laboratories)."}, "[2]": {"tested_on": "LMCD1 transfectants in SK-Hep1 cells", "test": "Wound healing assay in LMCD1 stable transfectants of SK-Hep1 cells", "details": "dose dependent", "method": "To test the hypothesis that LMCD1 mutants play a role in cell migration regulation, three different cell migration assays for reflecting alteration of directed migration, random migration, and chemotaxis were performed. Directed migration of these SK-Hep1 transfectants was inspected by wound healing assay. For the wound healing assay, cells were seeded in a 6-well plate at a confluent density and cultured overnight to grow into a monolayer. The culture was scratched with a p200 pipette tip, and the wound was allowed to close for 20 hours. The average reduction of distance between two wound edges was calculated to evaluate the rate of wound closure. […] Cells were photographed immediately after wounding (FIG. 7a upper) and 2 hours after wounding (FIG. 7a lower), with arrows indicating protrusion of cells at the wound edge. […] Images were obtained using an Olympus BX51 fluorescence microscope or a PerkinElmer Ultra View confocal microscope (PerkinElmer Life Sciences).\nThe bar graph to the right of the images in FIG. 4c provides quantification of average migration results, normalized to the mock cells (±SEM)."}, "LMCD1-K237R": {"tested_on": "LMCD1-K237R", "test": "LMCD1-K237R expression in PLC/PRF/5 cells by reverse-transcription PCR", "format": "cell-based, human", "details": "10 nM 17β-estradiol", "experimental": "Five independent pLKO.1 lentiviral-based shRNA clones targeting human LMCD1 (NM_014583) from The RNAi Consortium (TRC) library were tested. […] Human shRNA for RAC1 (shRac1) was also obtained from TRC library with number TRCN0000004870: 5′-[…]-3′. pLKO.1-shLuc was used as control. To generate shRNA lentiviral particles, HEK293T cells were co-transfected with a plasmid mixture (pLKO.1-puro-shRNA, pCMVΔR8.91 packaging plasmid, and pMD.G envelope plasmid) by calcium phosphate protocol. Cell medium containing viral particles was collected three times at 24-hour intervals after transfection. The virus-containing medium was aliquoted and used to infect cells or stored at −80° C. until use. Ninety-six hours after infection, cells were subjected to further experimental assays or harvested for LMCD1 or Rac1 gene expression analysis by RT-PCR or Western blotting.\n(§1) Trans-well migration assays were performed as in Example 3. Expression of LMCD1-K237R in PLC/PRF/5 cells (1×10^5 cells) was induced by exposure to 10 nM 17β-estradiol. Results are provided in FIG. 4d, with some cells also being treated with the indicated shRNA. Images in FIG. 4d are representative of migration results from three independent experiments, with (+E2) and without (−E2) estradiol treatment. The migration results are quantified by bar graph in FIG. 4e (±SEM). […]"}, "PLC/PRF/5 cells": {"tested_on": "PLC/PRF/5 cells", "test": "Trans-well migration assay in PLC/PRF/5 cells", "format": "cell-based, human", "details": "10 nM 17β-estradiol, 24 hours", "experimental": "For trans-well assay, 1×10^4 cells resuspended in serum-free medium were seeded into the upper chamber of an insert with an 8.0-μm pore size of polycarbonate membrane (BD Biosciences) and then placed into the bottom chamber containing 10% FBS as chemoattractant. Cells were allowed to migrate for 24 hours followed by methanol fixation and Giemsa staining (MERCK Darmstadt, Germany). Un-migrated cells on the membrane apical side were removed. Migrated cells were photographed with a phase contrast microscope and the number was counted by using Image-Pro Plus software. All experiments were performed in triplicates. […] Images in the top panel of FIG. 3e are representative of three independent experiments performed in triplicate. Quantification of average migrated cell number is shown in bar graphs below the images (±SEM).\nas §1"}, "[3]": {"tested_on": "Rac1 interaction with Rac1-specific GEFs TrioN, GEF-H1 and Tiam1", "details": "cited from earlier work"}},
  "data": [
    {"compound": "CCN(CC)CCCC(C)Nc1nc(C)cc(Nc2ccc3nc(C)cc(N)c3c2)n1", "note": "(centres unmarked) [NSC23766]", "values": [
      {"measurement": "lamellipodia extension", "setting": "[1]", "value": "inhibited lamellipodia extension"},
      {"measurement": "cell mobility (wound closure)", "setting": "[2]", "value": "decreased"}
    ]},
    {"compound": "C[C@]12CC[C@@H]3c4ccc(O)cc4CC[C@H]3[C@@H]1CC[C@@H]2O", "note": "[estrogen, 17β-estradiol]", "values": [
      {"measurement": "expression of LMCD1-K237R", "setting": "LMCD1-K237R", "value": "up-regulate"},
      {"measurement": "cell migration", "setting": "PLC/PRF/5 cells", "value": "up-regulate"}
    ]},
    {"compound": "Rac1 Inhibitor W56: peptide comprising residues 45-60 of the guanine nucleotide exchange factor (GEF) recognition/activation site of Rac1 (MVDGKPVNLGLWDTAG; UniProt P63000 45-60, looked up, fragment)", "values": [
      {"measurement": "inhibition of Rac1 interaction with Rac1-specific GEFs TrioN, GEF-H1 and Tiam1", "setting": "[3]", "value": "selectively inhibits"}
    ]}
  ]
}
